Results published in patent US20250171434A1, “SEC61 INHIBITORS AND USE THEREOF” (KEZAR LIFE SCIENCES, INC., priority 2022, published 2025).
Where two headings read alike, the source gives them in different places.

Columns and labels:
[1] = tested on: PD1-ss+10aa/Gaussia Luciferase; experiment: Dox-Induced PD1-ss-Gluc Assay; format: cell-based
Summary of the method: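 Doxycycline-induced expression of a PD1-ss+10aa/Gaussia luciferase reporter is measured in stable Flp-In 293 T-REx cells. Compound dilutions containing doxycycline are added one day after plating and incubated at 37 °C, 5% CO2. Values for unassigned stereocentres refer to stereoisomer mixtures.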

[2] = tested on: IL-2-FL/Gaussia Luciferase; experiment: Dox Inducible IL2-FL-Gluc Assay; format: cell-based
Summary of the method: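 Doxycycline induces an IL-2(1-153)–Gaussia luciferase fusion in a stable Flp-In 293 T-REx line. Compound exposure runs alongside induction at 37° C.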

[3] = tested on: HER3-ss+4aa/Gaussia Luciferase; experiment: Dox-Inducible Her3-ss-Gluc Assay; format: cell-based
From the text: Flp-In 293 T-REx™ cells were transfected with pcDNA™5/FRT/TO plasmid inserted with cDNA encoding Gaussia Luciferase fused to the 3′ end of cDNA encoding HER3 signal sequence plus 4 amino acids (N-[…]-C) (SEQ ID NO: 2). Transfected cells were selected for resistance to the selectable markers Hygromycin and Blasticidin to create a stable cell line that contained the HER3-ss+4aa/Gaussia Luciferase cDNA insert whose expression was regulated under the T-REx™ system. The day before assay, cells were trypsinized and plated in 384-well tissue culture plates. The next day, compound dilutions in DMSO/media containing doxycycline were added to the wells and incubated at 37° C., 5% CO2.
(§1) For chemical structures that include one or more stereoisomers, but are illustrated without indicating stereochemistry, the assay data refers to a mixture of stereoisomers.

[4] = tested on: TNFα-FL/Gaussia Luciferase; experiment: Dox Induced TNFα-FL-Gluc Assay; format: cell-based
From the text: Flp-In 293 T-REx™ cells were transfected with pcDNA™5/FRT/TO plasmid inserted with cDNA encoding Gaussia Luciferase fused to the 3′ end of cDNA encoding full length TNFα (amino acids 1-233). Transfected cells were selected for resistance to the selectable markers Hygromycin and Blasticidin to create a stable cell line that contained the TNFα-FL/Gaussia Luciferase cDNA insert whose expression was regulated under the T-REx™ system. The day before assay, cells were trypsinized and plated in 384-well tissue culture plates. The next day, compound dilutions in DMSO/media containing doxycycline were added to the wells and incubated at 37° C., 5% CO2.
as §1

[5] = tested on: multiple myeloma cell line NCI-H929; experiment: H929 Cell Viability Assay; format: cell-based, human; conditions: Homo sapiens
Summary of the method: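 Viability is scored by CellTiter-Glo luminescence following a 48-hour treatment at 37° C. Data for structures shown without stereochemistry refer to stereoisomer mixtures.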

[6] = tested on: multiple myeloma cell line U266B1; experiment: U266 Cell Viability Assay; format: cell-based; conditions: Homo sapiens
Summary of the method: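 Viability is measured as luciferase signal from CellTiter-Glo following a 48-hour incubation with compound at 37° C. under 5% CO2. Where structures lack drawn stereochemistry, values refer to stereoisomer mixtures.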

[7] = Liver Microsome Stability Assay, mouse; format: in vitro ADME; conditions: mouse liver microsomes 1.0 mg/mL, 1.0 uM compound, 37° C., 1 mM NADPH
Summary of the method: (§2)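 Microsomes (1.0 mg/mL) in 0.1 M potassium phosphate are mixed with 1.0 uM test compound and 0.4% DMSO. Incubation runs at 37° C with or without 1 mM NADPH, and samples are quenched at 0 and 30 minutes.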

[8] = Liver Microsome Stability Assay, rat; format: in vitro ADME; conditions: rat liver microsomes 1.0 mg/mL, 1.0 uM compound, 37° C., 1 mM NADPH
Summary of the method: as §2

[9] = Liver Microsome Stability Assay, monkey; format: in vitro ADME; conditions: monkey liver microsomes 1.0 mg/mL, 1.0 uM compound, 37° C., 1 mM NADPH
Summary of the method: as §2

[10] = Liver Microsome Stability Assay, human; format: in vitro ADME; conditions: human liver microsomes 1.0 mg/mL, 1.0 uM compound, 37° C., 1 mM NADPH
Summary of the method: as §2

[11] = Flp-In 293 T-REx cells, 24 hours with doxycycline; Table 3; read-out: 24 hr Dox Inducible PD1ssGluc 293FRT/TO: Mean IC50
[12] = Flp-In 293 T-REx cells, 24 hours with doxycycline; Table 3; read-out: 24 hr Dox Inducible IL2FLGluc 293FRT/TO: Mean IC50
[13] = ratio of IC50s IL2/PD1; Table 3
[14] = Flp-In 293 T-REx cells, 24 hours with doxycycline; Table 3; read-out: 24 hr Dox Inducible Her3(ss + 4)Gluc 293FRT/TO: Mean IC50
[15] = Flp-In 293 T-REx cells, 24 hours with doxycycline; Table 3; read-out: 24 hr Dox Inducible TNFaFLGluc 293FRT/TO: Mean IC50
[16] = ratio of IC50s TNF/PD1; Table 3
[17] = NCI-H929 cells, 48 hours, Celltiter-Glo, read-out: 48 hr H929 Viability Celltiter-Glo: Mean EC50
[18] = U-266, U266B1 cells, 48 hours, Celltiter-Glo, read-out: 48 hr U266 Viability Celltiter-Glo: Mean EC50

SMILES | IC50 [1, 11] | IC50 [2, 12] | 24 hr Dox Inducible IL2FLGluc 293FRT/TO: IL2/PD1 [2, 13] | IC50 [3, 14] | IC50 [4, 15] | 24 hr Dox Inducible TNFaFLGluc 293FRT/TO: TNF/PD1 [4, 16] | EC50 [5, 17] | EC50 [6, 18] | Liver Microsome Stability (Multiple Species): Mouse - % Remaining after 30 min w/ NADPH (%) [7] | Liver Microsome Stability (Multiple Species): Rat - % Remaining after 30 min w/ NADPH (%) [8] | Liver Microsome Stability (Multiple Species): Monkey - % Remaining after 30 min w/ NADPH (%) [9] | Liver Microsome Stability (Multiple Species): Human - % Remaining after 30 min w/ NADPH (%) [10] | IC50 ([1]; read-out: 24 hr Dox Inducible PD1ssGluc 293FRT/TO: Mean IC50; Flp-In 293 T-REx cells, 24 hours with doxycycline; Table 3) | IC50 ([2]; read-out: 24 hr Dox Inducible IL2FLGluc 293FRT/TO: Mean IC50; Flp-In 293 T-REx cells, 24 hours with doxycycline; Table 3) | IC50 ([3]; read-out: 24 hr Dox Inducible Her3(ss + 4)Gluc 293FRT/TO: Mean IC50; Flp-In 293 T-REx cells, 24 hours with doxycycline; Table 3) | IC50 ([4]; read-out: 24 hr Dox Inducible TNFaFLGluc 293FRT/TO: Mean IC50; Flp-In 293 T-REx cells, 24 hours with doxycycline; Table 3) | EC50 ([5]; NCI-H929, 48 h, read-out: 48 hr H929 Viability Celltiter-Glo: Mean EC50 (nM)) | EC50 ([6]; U-266, 48 h, read-out: 48 hr U266 Viability Celltiter-Glo: Mean EC50 (nM))
O=C(Nc1nc(/C=C/c2ccc(OC3CC3)cc2F)cs1)c1cccn1Cc1ccnc(F)c1 [Compound B6, (E)-N-(4-(4-cyclopropoxy-2-fluorostyryl)thiazol-2-yl)-1-((2-fluoropyridin-4-yl)methyl)-1H-pyrrole-2-carboxamide] | 31 nM | 265 nM | 9 | 137 nM | 445 nM | 14 | > 25000 nM | > 25000 nM | 63% | 41% | 24% | 42% | – | – | – | – | – | –
C/C(=C\c1ccc(C)c(F)n1)c1csc(NC(=O)c2cccn2Cc2ccnc(F)c2)n1 [Compound B7, (E)-N-(4-(1-(6-fluoro-5-methylpyridin-2-yl)prop-1-en-2-yl)thiazol-2-yl)-1-((2-fluoropyridin-4-yl)methyl)-1H-pyrrole-2-carboxamide] | 30 nM | 499 nM | 17 | 184 nM | 3980 nM | 134 | 8090 nM | > 25000 nM | 23% | 13% | 6% | 4% | – | – | – | – | – | –
O=C(Nc1nc(/C=C/c2ccc(Cl)cn2)cs1)c1cccn1Cc1ccnc(F)c1 [Compound B8, (E)-N-(4-(2-(5-chloropyridin-2-yl)vinyl)thiazol-2-yl)-1-((2-fluoropyridin-4-yl)methyl)-1H-pyrrole-2-carboxamide] | 24 nM | 1680 nM | 69 | 1180 nM | 11200 nM | 462 | > 25000 nM | > 25000 nM | 11% | 1% | 4% | 22% | – | – | – | – | – | –
O=C(Nc1nc(/C=C/[C@H]2CC[C@@H](C(F)(F)F)CC2)cs1)c1cccn1Cc1ccncc1 [Compound B9, 1-(pyridin-4-ylmethyl)-N-(4-((E)-2-((1s,4s)-4-(trifluoromethyl)cyclohexyl)vinyl)thiazol-2-yl)-1H-pyrrole-2-carboxamide] | 161 nM | 748 nM | 5 | 298 nM | 3970 nM | 25 | 6260 nM | 20000 nM | 6% | 4% | 1% | 6% | – | – | – | – | – | –
O=C(Nc1nc(/C=C/[C@H]2CC[C@H](C(F)(F)F)CC2)cs1)c1cccn1Cc1ccncc1 [Compound B10, 1-(pyridin-4-ylmethyl)-N-(4-((E)-2-((1r,4r)-4-(trifluoromethyl)cyclohexyl)vinyl)thiazol-2-yl)-1H-pyrrole-2-carboxamide] | 41 nM | 249 nM | 6 | 86 nM | 1010 nM | 25 | 5810 nM | > 25000 nM | 49% | 5% | 11% | 38% | – | – | – | – | – | –
Cc1sc(NC(=O)c2cccn2Cc2ccnc(F)c2)nc1/C=C/c1cn(C(C)C)cn1 [Compound B23, (E)-1-((2-fluoropyridin-4-yl)methyl)-N-(4-(2-(1-isopropyl-1H-imidazol-4-yl)vinyl)-5-methylthiazol-2-yl)-1H-pyrrole-2-carboxamide] | – | – | >420 | – | – | >422 | – | – | 16% | 19% | 1% | <1% | 59 nM | > 25000 nM | 3390 nM | > 25000 nM | > 25000 nM | > 25000 nM
